Assay results from article PMC3923716 (PLoS Neglected Tropical Diseases, 2014).
pEC50, pIC50: −log10 of the molar value. Like-named read-outs stand apart in the source and are kept apart here.

What was measured:
B. malayi Hsp90 = B. malayi Hsp90 (Brugia malayi, UniProt A0A0H5S7Y7); experiment: Competition FP assay (displacement of Cy3B-GA), B. malayi lysate; format: binding
Description: (§1) The FP assay was set up essentially as described previously, [25]. […] The equilibrium binding of Cy3B-GA and recombinant human Hsp90α (Enzo Life Sciences, Farmingdale, NY USA) or parasite lysate was determined by creating a two-fold dilution series of protein/extract for an eleven-point curve with the first column containing no protein. […] All FP values are expressed in millipolarization (mP) units with the mP value of free Cy3B-GA probe set to 50. Equilibrium binding constants were determined by nonlinear regression using a one-site binding model (GraphPad Prism software).
(§2) The relative binding affinities of inhibitors to human or parasite-derived Hsp90 was determined using competitive FP binding assays. […] For parasite-derived Hsp90, an amount of parasite lysate resulting in 50% of maximal Cy3B-GA binding was used. […] Stock solutions of each compound were prepared in DMSO at a concentration of 10 mM and 3-fold serial dilutions prepared in DMSO for eleven point curves. […] The final concentration of Cy3B-GA was 6 nM and the final DMSO concentration in all wells was 0.5%. Free Cy3B-GA (mP set to 50) and buffer only (background) wells were included as controls on each plate. Plates were incubated at 8°C with gentle shaking for 20 h.

B. pahangi Hsp90 = target: T1, B. pahangi Hsp90 (Brugia pahangi, UniProt O61998); experiment: Competition FP assay (displacement of Cy3B-GA), B. pahangi lysate; format: binding
T1 construct: Adult worms of B. pahangi were obtained from infected jirds; from tissue; host or cells: whole adult B. pahangi worms, ground and lysed in HFB buffer
Description: Adult worms of B. pahangi were obtained from infected jirds after 3–4 months, exactly as described previously and were frozen in liquid nitrogen, ground in a pestle and mortar to a fine powder and re-suspended in an appropriate volume of HFB assay buffer (20 mM HEPES, pH 7.3, 50 mM KCl, 5 mM MgCl2, 20 mM Na2MoO4, 1% NP40). Protein concentrations were estimated using the BioRad protein assay. At this point lysates were freeze-dried for shipping to the USA.
as §1, §2

adult female B. pahangi = experiment: Adult female worm assay in vitro (Mf output and adult viability), continuous exposure; format: cell-based, Brugia pahangi; conditions: initial screen 2.0 µM to 100 nM, adult female worms
Description: For adult worm assays, adult female B. pahangi, 3–4 months old, were incubated individually in 2.0 ml of WCM overnight in 24-well plates and pre-screened for Mf production. […] For the drug experiments, six female worms of B. pahangi for each concentration of drug were cultured individually in 24-well plates in 2.0 ml of WCM containing drug, or carrier alone (DMSO) at a concentration equal to that in the highest concentration of drug. In some experiments, GA was used as a positive control. Initially, all five compounds were tested over selected concentrations starting at 2 µM to 100 nM (see Results for details). For Hsp90 inhibitors, Mf output by individual female worms is a sensitive indicator of adult worm viability and, in most experiments, was assessed at 72 h. In addition, adult worms were examined microscopically on a daily basis for 7–10 days to determine whether lower concentrations of drugs had any effects over a longer period of incubation. Results are expressed as mean Mf output ± SD over a 72 h period. Statistical significance between groups was calculated using the Mann Whitney test with P values<0.05 being considered significant.

[1] = tested on: B. pahangi Mf (microfilariae); experiment: Mf viability in vitro; format: cell-based, Brugia pahangi; conditions: for % death by day 7: Mf; for effect of lower concentrations on Mf: concentrations below the killing concentration; for condition of Mf: 250 nM, day 7
Description: As adult Brugia worms are limited in numbers, initial experiments assessed the effect of each drug on Mf viability. Mf were purified from infected animals essentially as described previously. In brief, following lavage of the peritoneal cavity of an infected animal with Hanks Balanced Salt Solution (HBSS) pre-warmed to 37°C, Mf were collected by centrifugation and then purified from host cells by centrifugation through lymphoprep (Sigma). This procedure was repeated twice. Mf were collected from the pellet, washed twice in HBSS and once in worm culture medium (WCM) which comprised RPMI 1640, (Invitrogen Cat No: 52400), containing 5% heat inactivated fetal calf serum, 1% glucose, 100 units/ml penicillin and 100 µg/ml streptomycin (all Invitrogen). Mf were then dispensed into the wells of a 24-well plate to give approximately 200 Mf in 2.0 ml, using a single well for each drug concentration. All procedures were carried out using aseptic techniques. The five novel compounds, plus GA and medium alone controls, were tested three times against Mf over the full range of concentrations.

Brugia Hsp90 = experiment: Competition FP assay, Brugia Hsp90 (species not separated); format: binding
Description: as §1, §2

adult B. malayi worms = conditions: 48 h of drug exposure
Source text: (§3) Plates were maintained for up to 10 days and the condition of adult parasites noted at regular intervals. In one experiment the effect of GA on Mf output by adult B. malayi worms was compared with B. pahangi. B. malayi worms were kindly provided by Prof. R. Maizels (University of Edinburgh). […] In all in vitro experiments, plates were viewed daily and the motility and condition of the parasites noted by two independent observers, of whom one was unaware of the contents of the well.

adult B. pahangi worms = conditions: 48 h of drug exposure
Source text: as §3

recombinant human Hsp90α = target: T2, recombinant human Hsp90α (Homo sapiens, UniProt P07900); experiment: Competition FP assay (displacement of Cy3B-GA), human Hsp90α; format: binding
T2 construct: purchased Enzo Life Sciences
Description: as §1
as §2, with “Free Cy3B-GA (mP set to 50) and buffer only (background) wells were included as controls on each plate.” left out

[2] = best fit (95% confidence intervals), read-out: B. malayi IC50
[3] = FP assay, best fit (95% confidence intervals), read-out: B. pahangi IC50
[4] = read-out: B. malayi IC50, best fit (95% confidence intervals)

Row | SMILES | pIC50 (B. malayi Hsp90; [2]) | pIC50 (B. pahangi Hsp90; [3]) | concentration with significant effect on Mf output (adult female B. pahangi) [nM] | pIC50 (B. malayi Hsp90; [4]) | further results
1 | C=CCNC1=C2C[C@@H](C)C[C@H](OC)[C@H](O)[C@@H](C)/C=C(\C)[C@H](OC(N)=O)[C@@H](OC)/C=C\C=C(/C)C(=O)NC(=CC1=O)C2=O [17-AAG] | 8.60 | 8.10 |  |  | 
2 | COc1c(C)cnc(Cn2cnc3c(Cl)nc(N)nc32)c1C [BIIB021] |  |  | 2000 | 7.85 | concentration active on Mf ([1]; 7 days, tested 4.0 µM to 0.976 nM): 4.0 µM; % death by day 7 ([1]; 4.0 µM): 100%; effect of lower concentrations on Mf ([1]; 7 days): affected worm motility but did not kill the worms; pIC50 (B. pahangi Hsp90): 7.80
3 | Oc1cc(O)c(-c2noc3ccc(NCCN4CCOCC4)cc23)cc1Cl [CAY10607] | 7.80 | 8.80 |  |  | higher affinity for B. pahangi Hsp90 compared to B. malayi Hsp90 (Brugia Hsp90): 10 fold
4 | CCc1cc(-c2n[nH]c(C)c2-c2ccc3c(c2)OCCO3)c(O)cc1O [CCT018159] | 6.48 | 6.62 |  |  | 
5 | COC1=C2C[C@@H](C)C[C@H](OC)[C@H](O)[C@@H](C)/C=C(\C)[C@H](OC(N)=O)[C@@H](OC)/C=C\C=C(/C)C(=O)NC(=CC1=O)C2=O [Geldanamycin] |  |  |  | 7.92 | % death by day 7 ([1]; 31.25 nM, listed as GA): 90%; reduction in Mf output (adult B. malayi worms; 1.0 µM): 74%; reduction in Mf output (adult B. malayi worms; 2.0 µM): 93%; reduction in Mf output (adult B. pahangi worms; 1.0 µM): 78%; reduction in Mf output (adult B. pahangi worms; 2.0 µM): 92%
6 | CCNC(=O)c1cc2c(-c3cc(OCCN4CCCC4)c(Cl)cc3Cl)nc(N)nc2s1 [NVP-BEP800] |  |  | ≤ 100 | 8.06 | pIC50 (recombinant human Hsp90α): 7.89; pEC50 ([1]; Brugia pahangi, 168 h, read-out: EC50 against Mf viability): ~6.60; % death by day 7 ([1]; 500 nM): majority of Mf; effect of lower concentrations on Mf ([1]; 7 days): affected Mf motility but did not kill substantial numbers of worms; pIC50 (Brugia Hsp90; read-out: IC50 for binding to Brugia Hsp90): ~8.15; pIC50 (B. pahangi Hsp90): 8.16
7 | CC(C)NCCCn1c(Sc2cc3c(cc2I)OCO3)nc2c(N)ncnc21 [PU-H71] | 7.57 | 7.77 |  |  | 
8 | CC1(C)CC(=O)c2c(C(F)(F)F)nn(-c3ccc(C(N)=O)c(N[C@H]4CC[C@H](O)CC4)c3)c2C1 [SNX-2112] |  |  | 500 | 7.70 | condition of Mf [1]: very sluggish but still alive; pIC50 (B. pahangi Hsp90): 7.82
9 | CC1(C)CC(=O)c2c(C(F)(F)F)nn(-c3ccc(C(N)=O)c(N[C@H]4CCC[C@@H]4O)c3)c2C1 [SNX-9203] | 7.96 | 8.00 | ≤ 100 |  | pIC50 (recombinant human Hsp90α; FP assay, best fit (95% confidence intervals), read-out: HsHsp90α IC50): 8.42; condition of Mf [1]: most worms were alive but were much less motile than controls; % death by day 7 ([1]; 500 nM): 90%
10 | CCNC(=O)c1[nH]nc(-c2cc(Cl)c(O)cc2O)c1-c1ccc(OC)cc1 [VER-49009] | 7.85 | 7.96 |  |  | 
11 | CCNC(=O)c1noc(-c2cc(Cl)c(O)cc2O)c1-c1ccc(OC)cc1 [VER-50589] | 8.92 | 9.27 |  |  | 
